This is an account of results in ChEMBL document CHEMBL1857833, “Screening and optimization of specific chemical series against human African Trypanosomiasis (HAT)”.

In brackets after ≈: the same amount, converted by molar mass. Several values for one entry are separate records, joined by “and”; a condition that tells them apart may be missing. Identical values can stand only once.

For orientation: IC50 means the midpoint of a concentration-inhibition curve. A word on the Papp A→B: it is how fast a substance crosses the layer from the apical side. By kinetic solubility is commonly meant solubility judged after dilution from a stock solution rather than from solid. The term chromatographic logD denotes lipophilicity estimated from chromatographic retention. Usually half-life stands for the time needed for the level to fall by half in the phase considered. Lower therefore signals rapid decline. A word on the Papp B→A: it is the apparent permeability from the basolateral to the apical side of a cell layer.

The subject of series [1] is Trypanosoma brucei. Briefly: DNDI: Inhibition of Human African Trypanosomiasis, SBRI 427, in vitro. As to conditions: Trypanosoma brucei, SBRI 427; read-out: IC50. Format: functional, organism-based.
In another series the test system is L929. Briefly: (§1) DNDI: Cytotoxicity against L929 mouse fibroblasts, 72 hour. Format: toxicity, cell-based. As to conditions: l929.
The nature of series [2]: as §1. Format: toxicity, cell-based. As to conditions: mouse, L929 mouse fibroblasts.
Series [3] concerns the target T1, MDR1 (ABCB1) (Homo sapiens, UniProt P08183). Briefly: DNDI: Apparent permeability from apical to basolateral side of the MDCK cell transfected with human MDR1after 60 mins at a concentration of 3uM. Format: ADME, cell-based, Canis lupus familiaris. As to conditions: dog, MDCK-MDR1.
The target in series [4] is T1, MDR1 (ABCB1). Briefly: DNDI: % of compound recovered from apical to basolateral permeability assay in MDCK cells transfected with human MDR1 after 60 mins at a concentration of 3uM in the presence of GF120918. Format: ADME, cell-based, Canis lupus familiaris. As to conditions: dog, MDCK-MDR1, with GF120918 (concentration not stated).
The nature of series [5]: DNDI: Solubility in phosphate buffered saline at pH7.4 measured by nephelometry at room temperature (NEPH-RT). Format: physicochemical. As to conditions: pH 7.4.
Series [6] addresses T1, MDR1 (ABCB1). Briefly: DNDI: % of compound recovered from apical to basolateral permeability assay in MDCK cells transfected with human MDR1 after 60 mins at a concentration of 3uM. Format: ADME, cell-based, Canis lupus familiaris. As to conditions: dog.
Series [7] addresses T1, MDR1 (ABCB1). Briefly: DNDI: Efflux ratio for permeability from basolateral to apical side to apical to basolateral side of MDCK cells transfected with human MDR1. As to conditions: dog. Format: ADME, cell-based, Canis lupus familiaris.
Series [8] is described as follows: DNDI: Lipophilicity measured in Chromatographic hydrophobicity index (CHI) assay, pH 7.4. Format: physicochemical. As to conditions: buffer.
Series [9] in a line: DNDI: half life in human liver microsomes at a concentration of 10uM. Format: ADME, Microsome.
A short description of series [10]: DNDI: half life in mouse liver microsomes at a concentration of 10uM. Format: ADME, Microsome.
Series [11] deals with T1, MDR1 (ABCB1). Briefly: DNDI: % of compound recovered from basolateral to apical permeability assay in MDCK cells transfected with human MDR1. Format: ADME, cell-based, Canis lupus familiaris. As to conditions: dog.
A short description of series [12]: DNDI: Cytotoxicity against L-6 rat myoblasts from skeletal muscle cells. Format: toxicity, cell-based, L6. As to conditions: L-6 rat skeletal muscle myoblasts.
For series [13] the following is noted: mouse, microsomes, 1 µM.
Description: (§3) DNDI: in vitro intrinsic clearance in mouse liver microsomes at a concentration of 1uM
The nature of series [14]: DNDI: in vitro intrinsic clearance in human liver microsomes at a concentration of 10uM. Format: ADME, Microsome. (Liver microsomes are a subcellular fraction often used to study metabolism.)
Series [15] is described as follows: DNDI: Cytotoxicity against L929 mouse fibroblasts, CYTO-SP, 24 hour. As to conditions: mouse, L929 mouse fibroblasts. Format: toxicity, cell-based.
Series [16] deals with Trypanosoma brucei rhodesiense. Briefly: DNDI: Inhibition of Human African Trypanosomiasis (HAT), STIB 900, in vitro. Format: functional, organism-based.
A short description of series [17]: DNDI: in vitro intrinsic clearance in mouse liver microsomes at a concentration of 10uM. Format: ADME, Microsome. As to conditions: read-out: CLint in vitro.
Another series concerns Leishmania donovani. Briefly: DNDI: Inhibition of formation of Leishmania donovani (strain MHOM/ET/67/L82) axenic amastigotes, in vitro. Format: functional, organism-based.
For series [18], the target named is T1, MDR1 (ABCB1). Briefly: DNDI: Apparent permeability from apical to basolateral side of the MDCK cell transfected with human MDR1. Format: ADME, cell-based, Canis lupus familiaris. As to conditions: dog.
A further series deals with Plasmodium falciparum. Briefly: DNDI: Inhibition of the malaria parasite Plasmodium falciparum, in vitro. Format: functional, organism-based. As to conditions: K1.
Series [19] deals with T1, MDR1 (ABCB1). Briefly: DNDI: Apparent permeability from basolateral to apical side of the MDCK cell transfected with human MDR1 after 60 mins at a concentration of 3uM. Format: ADME, cell-based, Canis lupus familiaris. As to conditions: dog.
Series [20] can be described thus: DNDI: Solubility in phosphate buffered saline at pH7.4 measured by optical density (turbidimetry) at room temperature (OD-RT). Format: physicochemical. As to conditions: pH 7.4.
Series [21] is described as follows: in vitro. As to conditions: mouse, t (1 / 2).
Description: (§4) DNDI: half life in mouse liver microsomes at a concentration of 1uM
In series [22] the target is T1, MDR1 (ABCB1). Briefly: DNDI: % of compound recovered from apical to basolateral permeability assay in MDCK cells transfected with human MDR1. Format: ADME, cell-based, Canis lupus familiaris. As to conditions: dog.
Another series deals with Trypanosoma cruzi. Briefly: DNDI: Inhibition of Chagas Disease parasite Trypanosoma cruzi (Tulahuen LacZ, Clone C4), in vitro. Format: functional, organism-based.
Series [23] is described as follows: DNDI: half-life in mouse S9 microsomes at a concentration of 1uM. Format: ADME, subcellular, Liver, S9 fraction.
The subject of series [24] is Trypanosoma brucei. Briefly: DNDI: Inhibition of Human African Trypanosomiasis, Cross 22, in vitro. Format: functional, organism-based.
The subject of series [25] is Trypanosoma brucei. Briefly: (§2) DNDI: Mean survival time in days (MSD) of mice after intraperitoneal injection of Human African Trypanosomiasis (HAT), EATRO 110, in vivo at 20 mg/kg/day for 4 days. Format: functional, Mus musculus.
Series [26] concerns Trypanosoma brucei. The series is described as §2. Format: functional, Mus musculus. This is another data set of the same source.
Series [27] can be described thus: in vitro. As to conditions: mouse, liver microsomes.
Description: as §3
Series [28] deals with Trypanosoma brucei. Briefly: DNDI: Mean survival time in days (MSD) of mice after intraperitoneal injection of Human African Trypanosomiasis (HAT), EATRO 110, in vivo at 5 mg/kg/day for 4 days. Format: functional, Mus musculus.
The conditions of series [29]: mouse, microsomes, 1 µM. The source holds these as a separate data set.
Description: as §4
The nature of series [30]: in vitro. As to conditions: human, liver microsomes, t (1 / 2).
Description: DNDI: half life in human liver microsomes at a concentration of 1uM
Series [31] in a line: in vitro. As to conditions: human, liver microsomes, CLint in vitro.
Description: DNDI: in vitro intrinsic clearance in human liver microsomes at a concentration of 1uM
[32] abbreviates: MDCK-MDR1, read-out: Calculated Ratio.

T1 sequence (P08183 whole entry): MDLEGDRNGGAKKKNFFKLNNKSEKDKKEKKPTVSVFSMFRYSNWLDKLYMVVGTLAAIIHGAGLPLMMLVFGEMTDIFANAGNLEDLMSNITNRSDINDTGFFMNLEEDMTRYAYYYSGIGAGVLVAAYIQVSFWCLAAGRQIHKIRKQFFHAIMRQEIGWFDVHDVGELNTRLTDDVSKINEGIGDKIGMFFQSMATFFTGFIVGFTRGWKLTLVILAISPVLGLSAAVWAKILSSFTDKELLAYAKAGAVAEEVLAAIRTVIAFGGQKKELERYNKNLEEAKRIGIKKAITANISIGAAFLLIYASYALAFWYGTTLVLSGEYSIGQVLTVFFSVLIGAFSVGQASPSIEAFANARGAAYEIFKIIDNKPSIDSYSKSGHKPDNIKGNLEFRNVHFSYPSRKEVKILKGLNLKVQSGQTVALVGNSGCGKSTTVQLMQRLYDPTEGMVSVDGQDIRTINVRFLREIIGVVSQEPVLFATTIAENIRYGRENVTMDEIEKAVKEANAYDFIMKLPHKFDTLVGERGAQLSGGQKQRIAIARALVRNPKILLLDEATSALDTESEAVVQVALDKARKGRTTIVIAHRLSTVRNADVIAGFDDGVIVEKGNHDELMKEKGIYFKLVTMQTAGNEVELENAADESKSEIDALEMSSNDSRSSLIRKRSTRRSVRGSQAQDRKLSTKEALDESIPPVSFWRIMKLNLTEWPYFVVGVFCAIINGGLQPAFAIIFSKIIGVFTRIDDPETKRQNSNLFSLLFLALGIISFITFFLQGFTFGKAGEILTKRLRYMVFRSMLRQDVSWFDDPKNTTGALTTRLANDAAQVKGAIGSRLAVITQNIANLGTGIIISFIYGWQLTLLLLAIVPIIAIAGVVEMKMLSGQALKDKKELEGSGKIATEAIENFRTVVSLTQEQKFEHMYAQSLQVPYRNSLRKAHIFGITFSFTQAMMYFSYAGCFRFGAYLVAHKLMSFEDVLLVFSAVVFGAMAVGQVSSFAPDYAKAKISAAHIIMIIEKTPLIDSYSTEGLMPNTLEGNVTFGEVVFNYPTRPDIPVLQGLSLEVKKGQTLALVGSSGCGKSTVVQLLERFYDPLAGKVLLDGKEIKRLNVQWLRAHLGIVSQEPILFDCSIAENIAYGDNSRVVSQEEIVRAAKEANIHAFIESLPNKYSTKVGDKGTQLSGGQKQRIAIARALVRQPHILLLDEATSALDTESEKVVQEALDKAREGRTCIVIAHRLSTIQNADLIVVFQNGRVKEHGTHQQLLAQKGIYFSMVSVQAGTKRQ

For the compound `CCCCc1ccc(-c2nc(CNCC(O)CN)co2)cc1` (stereo not drawn), the results for the concentration for half-maximal inhibition (IC50) in the series with Trypanosoma brucei [1] and in the series with L929 were 0.6 µg/mL (≈ 1.98 µM) and 3.31 µg/mL (≈ 10.9 µM), respectively. In addition, half-maximal inhibition in series [2] (IC50 at 72 h) was put at 2.91 µg/mL (≈ 9.59 µM).

Take `Cc1cc(NCCCn2ccnc2)n2nc(-c3cccc(F)c3)cc2n1`: the IC50 with Trypanosoma brucei [1] is above 5 µg/mL. Moreover, the apical-to-basolateral permeability (Papp A→B) at 1 h, 3 µM at MDR1 (ABCB1) [3] was 30.4 ×10⁻⁶ cm/s. The IC50 at 72 h in series [2] is above 10 µg/mL. Moreover, the recovery at 1 h, 3 µM on MDR1 (ABCB1) [4] worked out at 109%; at MDR1 (ABCB1) [6], 100%. The compound also showed a kinetic solubility in series [5] of 25 µM (≈ 8.76 µg/mL). For the same compound, the efflux ratio at MDR1 (ABCB1) [7] (setting [32]) is 0.43. The same compound came in with a chromatographic logD in series [8] of 3.67.

Consider `O/N=C(/NC1CCCCC1)c1cccnc1Oc1ccccc1`, for which the half-life at 10 µM in series [9] worked out at 314 min; in [10], 11 min. Besides, the IC50 in the series on Trypanosoma brucei [1] is 1.17 µg/mL (≈ 3.76 µM); in series [12], 43.9 µg/mL (≈ 141 µM); in [16], 27.6 µg/mL (≈ 88.6 µM); in the series with Leishmania donovani it was 44 µg/mL (≈ 141 µM); in the series with Plasmodium falciparum, 4.2 µg/mL (≈ 13.5 µM); in the series on Trypanosoma cruzi, above 30 µg/mL. Moreover, the recovery was determined as 83% on MDR1 (ABCB1) [11] and 66% at MDR1 (ABCB1) [22]. In [2], this compound had an IC50 at 72 h above 10 µg/mL. The CLint in vitro came to 423 µL/min/mg in series [13] and 9 µL/min/mg in [14]. In [15], the IC50 at 24 h is above 50 µg/mL. In addition, in [17], the microsomal CLint at 10 µM was 275 µL/min/mg. Further, the apparent permeability from apical to basolateral (Papp A→B) on MDR1 (ABCB1) [18] is 30.9 ×10⁻⁶ cm/s. Moreover, the basolateral-to-apical permeability (Papp B→A) at 1 h, 3 µM at MDR1 (ABCB1) [19] amounted to 51.4 ×10⁻⁶ cm/s. This compound gave a solubility (kinetic) in series [20] of 63 µM (≈ 19.6 µg/mL). Moreover, the efflux ratio on MDR1 (ABCB1) [7] (read-out: B-A/A-B) stood at 1.7. The same compound displayed a chromatographic logD in [8] of 3.92. The half-life at 1 µM in “in vitro [21]” (microsomes) was determined as 2 min.

As to `Fc1cccc(-c2cc3nc(-c4ccccc4)cc(NCCCN4CCOCC4)n3n2)c1`, in the series with Trypanosoma brucei [1], the IC50 is 5 µg/mL (≈ 11.6 µM). The apparent permeability from apical to basolateral (Papp A→B) at 1 h, 3 µM at MDR1 (ABCB1) [3] was determined as 3.26 ×10⁻⁶ cm/s. The IC50 at 72 h in series [2] is above 10 µg/mL. Also, the recovery at 1 h, 3 µM on MDR1 (ABCB1) [4] amounted to 51%; on MDR1 (ABCB1) [6], 59%. The compound further yielded a kinetic solubility in [5] of 3 µM (≈ 1.29 µg/mL). Further, the efflux ratio at MDR1 (ABCB1) [7] (setting [32]) was 0.05. The compound further registered a chromatographic logD in [8] above 5.2. The half-life at 1 µM in series [23] turned out to be 256 min.

On to `CCCCc1ccc(-c2nc(CNC3CC(C)CC(C)(C)C3)co2)cc1` (stereo not drawn), for which the IC50 turned out to be 0.34 µg/mL (≈ 0.959 µM) in the series on Trypanosoma brucei [24]; 1.26 µg/mL (≈ 3.55 µM) with L929; 1.73 µg/mL (≈ 4.88 µM) in [12]; 0.348 µg/mL (≈ 0.982 µM) in series [16]; 5.26 µg/mL (≈ 14.8 µM) in the series with Leishmania donovani; 0.521 µg/mL (≈ 1.47 µM) with Plasmodium falciparum. Further, the half-inhibitory concentration (IC50) with Trypanosoma cruzi was found to be 2 µg/mL (≈ 5.64 µM). For the same compound, the MSD is 2.5 days in the series on Trypanosoma brucei [25], 4 days in the series with Trypanosoma brucei [26] and 4 days with Trypanosoma brucei [28]. Half-maximal inhibition in series [2] (IC50 at 72 h) required 0.64 µg/mL (≈ 1.81 µM). For the same compound, the CLint in vitro in [13] turned out to be 3 µL/min/mg. Moreover, the solubility (kinetic) in series [5] amounted to 6 µM (≈ 2.13 µg/mL). The IC50 at 24 h in series [15] was above 50 µg/mL. Also, the microsomal CLint at 1 µM in “in vitro [27]” came to 4 µL/min/mg; in the series “in vitro [31]”, 14 µL/min/mg. The compound further yielded a chromatographic logD in series [8] of 5.99. Also, the half-life at 1 µM in “in vitro [21]” (liver microsomes) was 192 min; in the series “in vitro [30]”, 59 min. Further, in series [29], the “t (1 / 2)” value is 251 min and 224 min.

Regarding `Cc1cc(NCCCN2CCOCC2)n2nc(-c3cccc(F)c3)cc2n1`, the concentration for half-maximal inhibition (IC50) in the series on Trypanosoma brucei [1] was above 5 µg/mL. Besides, the apparent permeability from apical to basolateral (Papp A→B) at 1 h, 3 µM on MDR1 (ABCB1) [3] worked out at 36.1 ×10⁻⁶ cm/s. This compound came in with an IC50 at 72 h in series [2] above 10 µg/mL. The recovery at 1 h, 3 µM at MDR1 (ABCB1) [4] worked out at 85%; on MDR1 (ABCB1) [6], 91%. The compound further returned a kinetic solubility in series [5] of 25 µM (≈ 9.24 µg/mL). Also, the efflux ratio on MDR1 (ABCB1) [7] (setting [32]) was 0.12. In series [8], this compound showed a chromatographic logD of 4.44. Also, the half-life at 1 µM in series [23] was 35 min.

Take `CCCCc1ccc(-c2nc(CNCC(C)(C)CN)co2)cc1`: the 50% inhibitory concentration (IC50) amounted to 0.39 µg/mL (≈ 1.24 µM) with Trypanosoma brucei [1] and 2.96 µg/mL (≈ 9.38 µM) in the series with L929. In addition, in [2], the concentration for half-maximal inhibition (IC50) at 72 h was 1.81 µg/mL (≈ 5.74 µM).
